For 57 compounds, viability results are on record in paper PMC12040169 (PLOS Biology, 2025).

This data set can be described thus: in vitro. As to conditions: human, hela cells, % viability.

With `Cc1ccccc1C(=O)N1C[C@H]2NC(=O)c3ccccc3C(=O)[C@@]2(C)C1` [CBK285316], the viability – broadly, a read-out of living cells in per cent, often relative to untreated cells – at 28.5 h, 10 µM worked out at 99.7%.
In the case of `CCC(=O)Nc1sc2c(c1-c1nc3ccccc3s1)CCCC2` [CBK287324], the viability at 28.5 h, 10 µM came out at 91.7%.
In the case of `Oc1cc2cccnc2nc1-c1ccccc1` [CBK073697], the viability at 28.5 h, 10 µM was determined as 115%.
In the case of `N#CCCn1cc(C(=O)N2CCCCC2)c(-c2cc3ccccc3o2)n1` [CBK306206], the viability at 28.5 h, 10 µM was determined as 95.1%.
Take `COc1ccc(-c2noc([C@@H]3C[C@H](NC(=O)c4ccc(F)cc4)CN3C)n2)cc1` [CBK288861]: the viability at 28.5 h, 10 µM came to 118%.
On to `CCN(CC)CCCNc1nccc(-c2cn(C)nc2C)n1` [CBK306654], for which the viability at 28.5 h, 10 µM is 97.4%.
In the case of `CC(C)(c1noc(C2CCOCC2)n1)S(=O)(=O)c1ccc(Br)cc1` [CBK305543], the viability at 28.5 h, 10 µM was found to be 93.5%.
Take `Cc1ccc(Nc2nc(O)ns2)cc1` [CBK026011]: the viability at 28.5 h, 10 µM turned out to be 81%.
As for `CC(C)c1ccc(/C=C/C(=O)NC2CC2)cc1` [CBK149640], the viability at 28.5 h, 10 µM amounted to 105%.
As for `Cn1ccnc1C1(O)CC2CCC(C1)N2C(=O)c1cccc(Cl)c1` (stereo not drawn) [CBK284091], the viability at 28.5 h, 10 µM came to 86%.
As for `CCS(=O)(=O)NC1CCN(c2nc(C(F)(F)F)nc3[nH]cnc23)CC1` [CBK304588], the viability at 28.5 h, 10 µM is 86.8%.
For `CSc1ccccc1C(=O)NCCN(C)C` [CBK269757] the value was 90.9%; for `O=C(COc1ccc(NS(=O)(=O)c2ccc3c(c2)Cc2ccccc2-3)cc1)N1CCOCC1` [CBK266030], 101%.
As to `CN(C)CC(O)CN1C(=O)NC(C)(C)C1=O` (stereo not drawn) [CBK027078], the viability at 28.5 h, 10 µM was determined as 114%.
For the compound `O=[N+]([O-])c1cc(S(=O)(=O)Nc2cccc3ccccc23)ccc1N1CCNCC1` [CBK015584C], the viability at 28.5 h, 10 µM stood at 90%.
With `COc1ccc(C(C)N(CCN2CCOCC2)C(=O)NCc2cccnc2)cc1OC` (stereo not drawn) [CBK158986], the viability at 28.5 h, 10 µM was 114%.
`FC(F)(F)C1=NC(C(F)(F)F)=NP(N2CCOCC2)(N2CCOCC2)=N1` [CBK261042]: the viability at 28.5 h, 10 µM turned out to be 94.3%.
For the compound `COC(=O)c1sc2cc(C(F)(F)F)cnc2c1NC(=O)C1COc2ccccc2O1` (stereo not drawn) [CBK115865], the viability at 28.5 h, 10 µM was 107%.
With `CC(C)Cc1nnc(-c2ccccc2Cl)n1CC1CC1` [CBK200097], the viability at 28.5 h, 10 µM worked out at 98.1%.
Take `CN(C1CCCCC1)C1CCN(CCc2ccccc2)CC1` [CBK261918]: the viability at 28.5 h, 10 µM was found to be 97.5%.
Regarding `Cc1cc(NCc2ccccc2)nc2ccccc12` [CBK262206], the viability at 28.5 h, 10 µM was found to be 93.5%.
Regarding `COc1cc(C(=O)ON=C(N)Cc2cccc3ccccc23)cc(OC)c1OC` [CBK264611], the viability at 28.5 h, 10 µM was found to be 95.9%.
For `COc1ccc(C(C)C)cc1-c1cncc(N[C@@H](CO)C(C)C)n1` [CBK065356] the value was 102%; for `COc1cccc(/C=N/N2C(=O)c3ccc([N+](=O)[O-])cc3NC2c2cccc(OC)c2O)c1O` (stereo not drawn) [CBK074439], 91.3%; for `CC(C)(C)c1ccc(C(=O)Nc2cnn(CCCC(=O)O)c2)cc1` [CBK269929], 94.2%.
As for `CCc1nccn1CCCNC(=O)Nc1cc(-c2cccnc2)nn1C` [CBK306657], the viability at 28.5 h, 10 µM came out at 88.3%.
For `COc1cc(/C=C2/S/C(=N\c3ccccc3)NC2=O)ccc1OCc1ccccc1[N+](=O)[O-]` [CBK262165] the value was 88.4%; for `Cn1ncc2c1NC(=O)CC2c1c[nH]nc1-c1ccccc1` (stereo not drawn) [CBK287941], 99.5%.
`O=C(c1cccc(-c2ccc(F)cc2)c1)N1CC(O)C1` [CBK281499]: the viability at 28.5 h, 10 µM amounted to 100%.
For `COCCn1nc(C(=O)N(C)Cc2nc3ccccc3s2)ccc1=O` [CBK305338] the value was 91.8%; for `O=C1c2cc(S(=O)(=O)NCc3ccco3)ccc2-c2ccc(S(=O)(=O)NCc3ccco3)cc21` [CBK262250], 98.5%.
For the compound `CN(C)S(=O)(=O)N(CC(=O)NCC1CCCO1)c1ccccc1` (stereo not drawn) [CBK268192], the viability at 28.5 h, 10 µM worked out at 103%.
As for `Nc1nonc1C(=O)NCCNc1ccc([N+](=O)[O-])cn1` [CBK268279], the viability at 28.5 h, 10 µM was determined as 97.7%.
For `C[Si]1(C)O[Si](C)(C)O[Si](C)(CC[Si](C)(C)c2ccccc2)O[Si](C)(C)O1` [CBK260998], the viability at 28.5 h, 10 µM turned out to be 97%.
In the case of `COc1ccc(NC(=O)NC(=O)c2ccc(Cl)cc2)c(OC)c1` [CBK269462], the viability at 28.5 h, 10 µM was 93.1%.
The same measure for `COC(=O)c1ccc(NS(=O)(=O)c2cccc3cccnc23)cc1` [CBK028694]: 104%; for `Cc1nn(-c2ccccc2)c2c1C(c1cnn(C)c1)SCC(=O)N2` (stereo not drawn) [CBK287896]: 114%.
`N#Cc1ccc(C(=O)N2CCC3(CC2)NC(=O)c2cc(-c4ccoc4)ccc2O3)cc1` [CBK115852]: the viability at 28.5 h, 10 µM worked out at 88.9%.
In the case of `O=c1n(-c2ccc(OC(F)(F)F)cc2)ccn1S(=O)(=O)c1ccc(Cl)c(Cl)c1` [CBK106656], the viability at 28.5 h, 10 µM is 94.7%.
For the compound `COC(=O)c1c(NC(=O)C2C3C=CC(C3)C2C(=O)O)sc2c1CCCCC2` (stereo not drawn) [CBK262653], the viability at 28.5 h, 10 µM is 80.2%.
Regarding `O=C(COc1cccc(Cl)c1)NNC(=S)Nc1ccccc1` [CBK267180], the viability at 28.5 h, 10 µM is 88.4%.
In the case of `C/C(=N\N=C1/NC(=O)C(CC(=O)O)S1)c1ccc(CC(C)C)cc1` (stereo not drawn) [CBK006661], the viability at 28.5 h, 10 µM came out at 93.5%.
`Cc1cc(COC(=O)NCc2ccncc2)cc(C)n1` [CBK200136]: the viability at 28.5 h, 10 µM was determined as 99.4%.
Take `COCC(=O)Nc1ccc(Cl)c(NC(=O)NCCN2CCCC2=O)c1` [CBK306663]: the viability at 28.5 h, 10 µM was 87.9%.
Take `CCn1cc(CN2CCOC(c3cccc(-c4ccc(OC)cc4)n3)C2)c(C)n1` (stereo not drawn) [CBK286250]: the viability at 28.5 h, 10 µM came out at 84.4%.
Regarding `COc1cc(/C=N/n2cnnc2)ccc1OCCOc1ccc(C(C)(C)C)cc1` [CBK263762], the viability at 28.5 h, 10 µM was determined as 88.8%.
The same measure for `Cc1cc(C)n(CC(C)NC(=O)c2cc(C(F)(F)F)nn2C)n1` (stereo not drawn) [CBK281671]: 92.2%; for `CSc1nc(C#N)c(N)c(SC2C=CCCC2)n1` (stereo not drawn) [CBK021817]: 89.4%; for `O=C1CC(N2CCC(c3nc4ccccc4s3)CC2)C(=O)N1Cc1ccccc1` (stereo not drawn) [CBK267438]: 90%.
As for `COc1ccc(-c2cc(=O)oc3cc(OC(C)C(=O)O)ccc23)cc1` (stereo not drawn) [CBK286696], the viability at 28.5 h, 10 µM was 105%.
The same measure for `O=C1CN(C(=O)c2cc(-c3ccncc3)nc3ccccc23)CCN1` [CBK304370]: 104%; for `NS(=O)(=O)c1ccc(NC(=S)NC(=O)c2cccc3c(Cl)cccc23)cc1` [CBK268814]: 99.5%; for `COC[C@H]1CCCN1C(=O)CC[C@H]1CNC(=O)[C@@H]2[C@@H](CCN2C2CCOCC2)N1C` [CBK289037]: 90.9%.
Regarding `CCc1cccc(C)c1NC(=O)C1C2CCC(O2)C1C(=O)O` (stereo not drawn) [CBK263676], the viability at 28.5 h, 10 µM was found to be 88.1%.
In the case of `CCCn1cc(C(=O)NCC2CCN(c3ccccc3F)C2)c(C)n1` (stereo not drawn) [CBK304634], the viability at 28.5 h, 10 µM amounted to 79%.
For `CC(C)[C@H](CO)Nc1nc(-c2cccc(OC(F)(F)F)c2)cnc1N` [CBK063957], the viability at 28.5 h, 10 µM turned out to be 85.7%.
Take `Cc1ccc(/C=C(\NC(=O)c2ccccc2)C(=O)N2CCCC2C(=O)O)cc1` (stereo not drawn) [CBK265649]: the viability at 28.5 h, 10 µM is 87.6%.
